Laboratory results as given in patent EP0029306A1, “Aminoalkyl compounds, their production and pharmaceutical compositions containing them” (GLAXO GROUP LIMITED, priority 1979, dated 1981).
Where two headings read alike, the source gives them in different places.

Test system: histamine induced gastric acid secretion
Assay: Inhibition of histamine induced gastric acid secretion in the perfused rat stomach preparation
Type: in vivo
Conditions: sodium pentobarbitone anaesthesia

Molecule | ED50 (read-out: ED50) | ED50
Cn1nc(N)nc1NCCCCCOc1cccc(CN2CCCCC2)c1 [1(b), 1-methyl-N^5-[5-[3-(1-piperidinyl-methyl)phenoxy]pentyl]-1H-1,2,4-triazole-3,5-diamine] | 0.19 mg/kg | –
CC(=O)Nc1nc(NCCCCCOc2cccc(CN3CCCCC3)c2)n(C)n1 [Example 3] | 0.22 mg/kg | –
3-Phenylmethyl-5-[[2-[2-[3-(1-piperidinylmethyl)phenoxy] ethoxy]ethyl]amino]-1H-1,2,4-triazole [Example 4] | – | 0.17 mg/kg
CNC(=C[N+](=O)[O-])NCCCCCOc1cccc(CN2CCCCC2)c1 [5(b), N-[5-[3-(1-Piperidinylmethyl)phenoxy]pentyl]-N^1methyl-2-nitro-l,l-ethenediamine] | – | 0.027 mg/kg
Cn1nc(CO)nc1NCCCCCOc1cccc(CN2CCCCC2)c1 [2(a)] | 0.2 mg/kg | –
